These results are taken from patent US7848888B2, “Method for identification of biologically active agents” (Vitruvean LLC, priority 2002, dated 2010).

One assay has as its system flies. Conditions: administered orally to flies; cited from earlier work.
Another assay relates to wild-type flies. Put plainly: Motion tracking with wild-type flies. Conditions: flies fed 0.1M or 0.05M, compared to controls; FIG. 19. It counts as in vivo, Drosophila. From the text:
In the present exemplary application, to capture a movie of the movement of flies within specimen container 104, robot 114 grabs a specimen container 104 and positions it in front of camera 124. However, before positioning specimen container 104 in front of camera 124, robot 114 first raises specimen container 104 above a distance, such as about 2 centimeters, above base plate 106, then releases specimen container 104, which forces the flies within specimen container 104 to fall down to the bottom of specimen container 104. Robot 114 then grabs specimen container 104 again and positions it to be filmed by camera 124. In one exemplary embodiment, camera 124 captures about 40 consecutive frames at a frame rate of about 10 frames per second. It should be noted, however, that the number of frames captured and the frame rate used can vary. Additionally, the step of dropping specimen container 104 prior to filming can be omitted.
“Movement trait data” as used herein refers to the measurements made of one or more movement traits. Examples of “movement trait data” measurements include, but are not limited to X-pos, X-speed, speed, turning, stumbling, size, T-count, P-count, T-length, Cross150, Cross250, and F-count. Descriptions of these particular measurements are provided below. • X-Pos: The X-Pos score is calculated by concatenating the lists of x-positions for all trajectories and then computing the average of all values in the concatenated list. • X-Speed: The X-Speed score is calculated by first computing the lengths of the x-components of the speed vectors by taking the absolute difference in x-positions for subsequent frames. The resulting lists of x-speeds for all trajectories are then concatenated and the average x-speed for the concatenated list is computed. • Speed: The Speed score is calculated in the same way as the X-Speed score, but instead of only using the length of the x-component of the speed vector, the length of the whole vector is used. […]

Assay [1] relates to Drosophila expressing a mutant form of human Huntington (HD). Put plainly: Motion tracking with Drosophila model of Huntington disease. It counts as in vivo. Conditions: HD model with drug vs HD model without drug. On the procedure: “Movement trait data” as used herein refers to the measurements made of one or more movement traits. Examples of “movement trait data” measurements include, but are not limited to X-pos, X-speed, speed, turning, stumbling, size, T-count, P-count, T-length, Cross150, Cross250, and F-count. Descriptions of these particular measurements are provided below. • X-Pos: The X-Pos score is calculated by concatenating the lists of x-positions for all trajectories and then computing the average of all values in the concatenated list. • X-Speed: The X-Speed score is calculated by first computing the lengths of the x-components of the speed vectors by taking the absolute difference in x-positions for subsequent frames. The resulting lists of x-speeds for all trajectories are then concatenated and the average x-speed for the concatenated list is computed. • Speed: The Speed score is calculated in the same way as the X-Speed score, but instead of only using the length of the x-component of the speed vector, the length of the whole vector is used. That is, [length]=square root of ([x-length]^2+[y-length]^2). • Turning: The Turning score is calculated in the same way as the Speed score, but instead of using the length of the speed vector, the absolute angle between the current speed vector and the previous one is used, giving a value between 0 and 90 degrees. • Stumbling: The Stumbling score is calculated in the same way as the Speed score, but instead of using the length of the speed vector, the absolute angle between the current speed vector and the direction of body orientation is used, giving a value between 0 and 90 degrees. • Size: The Size score is calculated in the same way as the Speed score, but instead of using the length of the speed vector, the size of the detected fly is used. • T-Count: The T-Count score is the number of trajectories detected in the movie. • P-Count: The P-Count score is the total number of points in the movie (i.e., the number of points in each trajectory, summed over all trajectories in the movie). • T-Length: The T-Length score is the sum of the lengths of all speed vectors in the movie, giving the total length all flies in the movie have walked. • Cross150: The Cross150 score is the number of trajectories that either crossed the line at x=150 in the negative x-direction (from bottom to top of the vial) during the movie, or that were already above that line at the start of the movie. […] In other words this score measures the number of detected flies that either managed to hold on to the tube or that managed to climb above the x=150 line within the length of the movie. • Cross250: The Cross250 score is equivalent to the Cross150 score, but uses a line at x=250 instead. • F-Count: The F-Count score counts the number of detected flies in each individual frame, and then takes the maximum of these values over all frames. […]
Drosophila expressing a mutant form of human Huntington (HD) have a functional deficit that is quantifiable, reproducible, and is suitable for automated high-throughput screening. Drosophila (or specimen) movements can be analyzed for various characteristics and/or traits. For example, statistics on the movements of the specimens, such as the x and y travel distance, path length, speed, turning, and stumbling, can be calculated. […]
Differences between the HD model+/−drug (HDAC inhibitor, TSA) and wild type (control)+/−drug (TSA) can clearly be detected using the motion tracking software. […]

Consider `NCC1(CC(=O)O)CCCCC1` [Gabapentin], for which the “seizure and mean recovery times following seizure” value in the assay with flies is listed as “reduce”.
As for `[Cl-].[Li+]` [LiCl, Lithium Chloride], in the assay with wild-type flies, the incidence of stumbling result is reported as “increased incidence”, the incidence of turning entry is “increased incidence” and the speed result is “significant reduction”.
`O=C1NC(=O)C(c2ccccc2)(c2ccccc2)N1` [Phenytoin]: the “seizure and mean recovery times following seizure” value in the assay on flies was “reduce”.
As to `CC(/C=C/C(=O)NO)=C\[C@@H](C)C(=O)c1ccc(N(C)C)cc1` [TSA], the Speed score entry in assay [1] (p-values, FIG. 21B) was “do not yield significant values”. The Turning score result in assay [1] (p-values, FIG. 21D) was “do not yield significant values”. In addition, in assay [1] (p-values, FIG. 21F), the Stumbling score entry was “do not yield significant values”. The T-Length score result in assay [1] (p-values, FIG. 21H) is “best highlight the therapeutic effect”. Also, in assay [1] (FIG. 20, 21J), the “motor performance, Cross150 score (climbing ability)” value is “restore climbing ability for HD flies to almost the same level as for wt flies”.
Turning to `CC1(C)O[C@@H]2[C@@H](CO[C@@]3(COS(N)(=O)=O)OC(C)(C)O[C@@H]23)O1` [Topiramate], the “seizure and mean recovery times following seizure” value with flies is “reduce”.
